The source of these data is patent US20240158390A1, “OTHER HETEROAROMATIC COMPOUNDS HAVING ACTIVITY AGAINST RSV” (Janssen Sciences Ireland Unlimited Company, priority 2019, published 2024).

Some results are limits rather than exact numbers.

One data set deals with rgRSV224 virus. Nature of the data set: Antiviral activity: rgRSV224 (GFP) replication in HeLa cells. It is filed as cell-based. As to conditions: human respiratory syncytial virus, 72 h, read-out: RSV HELA EC50 (μM). The procedure:
(§1) Black 384-well clear-bottom microtiter plates (Corning, Amsterdam, The Netherlands) were filled via acoustic drop ejection using the echo liquid handler (Labcyte, Sunnyvale, California). 200 nL of compound stock solutions (100% DMSO) were transferred to the assay plates. 9 serial 4-fold dilutions of compound were made, creating per quadrant the same compound concentration. The assay was initiated by adding 10 μL of culture medium to each well (RPMI medium without phenol red, 10% FBS-heat inactivated, 0.04% gentamycin (50 mg/mL). All addition steps are done by using a multidrop dispenser (Thermo Scientific, Erembodegem, Belgium). Next, rgRSV224 virus (MOI=1) diluted in culture medium was added to the plates. rgRSV224 virus is an engineered virus that includes an additional GFP gene (Hallak LK, Spillmann D, Collins PL, Peeples ME. Glycosaminoglycan sulfation requirements for respiratory syncytial virus infection; Journal of virology (2000), 74(22), 10508-13) and was in-licensed from the NIH (Bethesda, MD, USA). Finally, 20 μL of a HeLa cell suspension (3,000 cells/well) were plated. Medium, virus- and mock-infected controls were included in each test. The wells contain 0.05% DMSO per volume. Cells were incubated at 37° C. in a 5% CO2 atmosphere. Three days post-virus exposure, viral replication was quantified by measuring GFP expression in the cells by an in house developed MSM laser microscope (Tibotec, Beerse, Belgium). The EC50 was defined as the 50% inhibitory concentration for GFP expression. In parallel, compounds were incubated for three days in a set of white 384-well microtiter plates (Corning) and the cytotoxicity of compounds in HeLa cells was determined by measuring the ATP content of the cells using the ATPlite kit (Perkin Elmer, Zaventem, Belgium) according to the manufacturer's instructions. The CC50 was defined as the 50% concentration for cytotoxicity.

A short description of another data set: in vitro. As to conditions: human. It is filed as cell-based. As for the experimental part:
as §1

As usually defined, the EC50 is the concentration at which the effect is half-maximal. The term CC50 denotes the concentration giving 50% cytotoxicity. A lower CC50 goes with greater toxicity to the cells. Take `C[C@@H]1c2ccccc2CCN1C(=O)c1cc(C2CC2)c2c(n1)nc(-c1ccc(C3C[C@H]3C(=O)O)cc1F)n2C` (relative stereo) [Compound 13, (Trans)-2-(4-(7-cyclopropyl-1-methyl-5-((R)-1-methyl-1,2,3,4-tetrahydroisoquinoline-2-carbonyl)-1H-imidazo[4,5-b]pyridin-2-yl)-3-fluorophenyl)cyclopropane-1-carboxylic acid]: the EC50 in the data set on rgRSV224 virus was determined as 22.4 µM. In the data set “in vitro”, this compound displayed a CC50 at 3 days above 100 µM.

As for `C[C@@H]1c2ccccc2CCN1C(=O)c1cc(C2CC2)c2nc(-c3ccc(C4C[C@@H]4C(=O)O)cc3F)n(C)c2c1` (relative stereo) [Compound 14, Cis-2-(4-{4-cyclopropyl-1-methyl-6-[(1R)-1-methyl-1,2,3,4-tetrahydroisoquinoline-2-carbonyl]-1H-1,3-benzodiazol-2-yl}-3-fluorophenyl)cyclopropane-1-carboxylic acid], the EC50 with rgRSV224 virus was determined as 9.05 µM. The CC50 at 3 days in the data set “in vitro” was above 100 µM.

`C[C@@H]1c2ccccc2CCN1C(=O)c1cc(C2CC2)c2nc(-c3ccc(C4C[C@@H]4C(N)=O)cc3F)n(C)c2c1` (relative stereo) [Compound 15, Cis-2-(4-{4-cyclopropyl-1-methyl-6-[(1R)-1-methyl-1,2,3,4-tetrahydroisoquinoline-2-carbonyl]-1H-1,3-benzodiazol-2-yl}-3-fluorophenyl)cyclopropane-1-carboxamide]: the EC50 in the data set on rgRSV224 virus amounted to 0.69 µM. Further, in the data set “in vitro”, the CC50 at 3 days worked out at 50.4 µM.

On to `C[C@@H]1c2ccccc2CCN1C(=O)c1cc(C2CC2)c2nc(-c3ccc(C4CC4C(=O)O)cc3F)n(C)c2n1` (stereo in doubt) [Compound 11, Trans 2-(4-{7-Cyclopropyl-3-methyl-5-[(1R)-1-methyl-1,2,3,4-tetrahydroisoquinoline-2-carbonyl]-3H-imidazo[4,5-b]pyridin-2-yl}-3-fluorophenyl)cyclopropane-1-carboxylic acid], for which the EC50 in the data set with rgRSV224 virus amounted to 0.52 µM. For the same compound, the midpoint of cytotoxicity in the data set “in vitro”, the CC50 at 3 days, lay at 76.8 µM.

For `CCc1cc(C(=O)N2CCc3ccccc3[C@H]2C)nc2oc(-c3ccc(NC(=O)N4CC[C@@H](O)C4)cc3F)nc12` [Compound 1, (R)-N-(4-(7-ethyl-5-((R)-1-methyl-1,2,3,4-tetrahydroisoquinoline-2-carbonyl)oxazolo[5,4-b]pyridin-2-yl)-3-fluorophenyl)-3-hydroxypyrrolidine-1-carboxamide], in the data set with rgRSV224 virus, the EC50 is 0.01 µM. The CC50 at 3 days in the data set “in vitro” is above 25 µM.

As to `C[C@@H]1c2ccccc2CCN1C(=O)c1cc(C2CC2)c2nc(-c3ccc(N4C[C@H](O)[C@@H](O)C4)cc3F)oc2n1` [Compound 2, (7-cyclopropyl-2-(4-((3 S,4S)-3,4-dihydroxypyrrolidin-1-yl)-2-fluorophenyl)oxazolo[5,4-b]pyridin-5-yl)((R)-1-methyl-3,4-dihydroisoquinolin-2(1H)-yl)methanone], in the data set on rgRSV224 virus, the EC50 is 0.02 µM. The CC50 at 3 days in “in vitro” is 26 µM.

Regarding `CCc1cc(C(=O)N2CCc3ccccc3[C@H]2C)cc2cc(-c3ccc(N4C[C@H](O)[C@@H](O)C4)cc3F)oc12` [Compound 3, (2-(4-((3S,4S)-3,4-dihydroxypyrrolidin-1-yl)-2-fluorophenyl)-7-ethylbenzofuran-5-yl)((R)-1-methyl-3,4-dihydroisoquinolin-2 (1H)-yl)methanone], the EC50 in the data set on rgRSV224 virus was 0.25 µM. The compound further yielded a CC50 at 3 days in “in vitro” of 24.2 µM.

On to `C[C@@H]1c2ccccc2CCN1C(=O)c1cc(C2CC2)c2cc(-c3ccc(N4C[C@H](O)[C@@H](O)C4)cc3F)sc2n1` [Compound 4, (4-cyclopropyl-2-(4-((3 S,4S)-3,4-dihydroxypyrrolidin-1-yl)-2-fluorophenyl)thieno[2,3-b]pyridin-6-yl)((R)-1-methyl-3,4-dihydroisoquinolin-2(1H)-yl)methanone], for which the EC50 in the data set with rgRSV224 virus came to 0.14 µM. In “in vitro”, this compound displayed a CC50 at 3 days of 14.3 µM.

As to `C[C@@H]1c2ccccc2CCN1C(=O)c1cc(C2CC2)c2sc(-c3ccc(N4C[C@H](O)[C@@H](O)C4)cc3F)nc2n1` [Compound 5, (7-cyclopropyl-2-(4-((3 S,4S)-3,4-dihydroxypyrrolidin-1-yl)-2-fluorophenyl)thiazolo[4,5-b]pyridin-5-yl)((R)-1-methyl-3,4-dihydroisoquinolin-2(1H)-yl)methanone], the EC50 with rgRSV224 virus was 0.73 µM. The CC50 at 3 days in “in vitro” turned out to be 33.3 µM.

For `CCc1cc(C(=O)N2CCc3ccccc3[C@H]2C)nc2cc(-c3ccc(NC(=O)N4CC[C@@H](O)C4)cc3F)oc12` [Compound 6, (R)-N-(4-(7-ethyl-5-((R)-1-methyl-1,2,3,4-tetrahydroisoquinoline-2-carbonyl)furo[3,2-b]pyridin-2-yl)-3-fluorophenyl)-3-hydroxypyrrolidine-1-carboxamide], in the data set on rgRSV224 virus, the EC50 is 0.07 µM. In the data set “in vitro”, this compound registered a CC50 at 3 days above 100 µM.

On to `C[C@@H]1c2ccccc2CCN1C(=O)c1cc(C2CC2)c2nn(-c3ccc(NC(=O)N4CC[C@@H](O)C4)cc3F)cc2n1` [Compound 7, (R)-N-(4-(7-cyclopropyl-5-((R)-1-methyl-1,2,3,4-tetrahydroisoquinoline-2-carbonyl)-2H-pyrazolo[4,3-b]pyridin-2-yl)-3-fluorophenyl)-3-hydroxypyrrolidine-1-carboxamide], for which the EC50 in the data set with rgRSV224 virus stood at 0.05 µM. This compound registered a CC50 at 3 days in “in vitro” of 47.6 µM.

Take `C[C@@H]1c2ccccc2CCN1C(=O)c1cc(C2CC2)c2cc(-c3ccc([C@H]4C[C@@H]4C(=O)O)cc3F)[nH]c2c1` [Compound 8, (1 S,2S)-2-(4-(4-cyclopropyl-6-((R)-1-methyl-1,2,3,4-tetrahydroisoquinoline-2-carbonyl)-1H-indol-2-yl)-3-fluorophenyl)cyclopropane-1-carboxylic acid]: in the data set with rgRSV224 virus, the EC50 is 2.04 µM. In “in vitro”, this compound came in with a CC50 at 3 days of 20.9 µM.

With `C[C@@H]1c2ccccc2CCN1C(=O)c1cc(C2CC2)c2cc(-c3ccc([C@H]4C[C@@H]4C(=O)O)cc3F)n(C)c2c1` [Compound 9, (1 S,2S)-2-(4-(4-cyclopropyl-1-methyl-6-((R)-1-methyl-1,2,3,4-tetrahydroisoquinoline-2-carbonyl)-1H-indol-2-yl)-3-fluorophenyl)cyclopropane-1-carboxylic acid], the concentration giving a half-maximal response (EC50) in the data set on rgRSV224 virus was 2.31 µM. The compound also registered a CC50 at 3 days in “in vitro” of 31.4 µM.

For `C[C@@H]1c2ccccc2CCN1C(=O)c1cc(C2CC2)c2cc(-c3ccc(N4CC[C@@H](C(=O)O)C4)cc3F)n(C)c2c1` [Compound 10, (R)-1-(4-(4-cyclopropyl-1-methyl-6-((R)-1-methyl-1,2,3,4-tetrahydroisoquinoline-2-carbonyl)-1H-indol-2-yl)-3-fluorophenyl)pyrrolidine-3-carboxylic acid], in the data set on rgRSV224 virus, the EC50 worked out at 2.64 µM. The midpoint of cytotoxicity in the data set “in vitro”, the CC50 at 3 days, lay at 21.1 µM.

Consider `C[C@@H]1c2ccccc2CCN1C(=O)c1cc(C2CC2)c2nc(-c3ccc(N4CC[C@H](C(=O)O)C4)cc3F)n(C)c2n1` [Compound 12, Methyl (3S)-1-(4-{7-cyclopropyl-3-methyl-5-[(1R)-1-methyl-1,2,3,4-tetrahydroisoquinoline-2-carbonyl]-3H-imidazo[4,5-b]pyridin-2-yl}-3-fluorophenyl)pyrrolidine-3-carboxylic acid], for which, in the data set with rgRSV224 virus, the concentration giving a half-maximal response (EC50) is 0.43 µM. This compound registered a CC50 at 3 days in the data set “in vitro” of 63 µM.

Take `C[C@@H]1c2ccccc2CCN1C(=O)c1cc(C2CC2)c2nc(-c3ccc(N4CC[C@H](C(=O)O)C4)cc3F)n(C)c2c1` [Compound 16, (3S)-1-(4-{4-Cyclopropyl-1-methyl-6-[(1R)-1-methyl-1,2,3,4-tetrahydroisoquinoline-2-carbonyl]-1H-1,3-benzodiazol-2-yl}-3-fluorophenyl)pyrrolidine-3-carboxylic acid]: in the data set with rgRSV224 virus, the EC50 turned out to be 0.61 µM. The compound also showed a CC50 at 3 days in the data set “in vitro” of 65.3 µM.

On to `C[C@@H]1c2ccccc2CCN1C(=O)c1cc(C2CC2)c2nc(-c3ccc(N4CC[C@H](C(N)=O)C4)cc3F)n(C)c2c1` [Compound 17, (3S)-1-(4-{4-Cyclopropyl-1-methyl-6-[(1R)-1-methyl-1,2,3,4-tetrahydroisoquinoline-2-carbonyl]-1H-1,3-benzodiazol-2-yl}-3-fluorophenyl)pyrrolidine-3-carboxamide], for which the EC50 in the data set with rgRSV224 virus was 0.17 µM. The CC50 at 3 days in “in vitro” amounted to 39.6 µM.

As for `C[C@@H]1c2ccccc2CCN1C(=O)c1cc(C2CC2)c2nc(-c3ccc(NC(=O)N4CC[C@@H](O)C4)cc3F)n(C)c2c1` [Compound 18, (3R)-N-(4-{4-Cyclopropyl-1-methyl-6-[(1R)-1-methyl-1,2,3,4-tetrahydroisoquinoline-2-carbonyl]-1H-1,3-benzodiazol-2-yl}-3-fluorophenyl)-3-hydroxypyrrolidine-1-carboxamide], the EC50 with rgRSV224 virus was 0.14 µM. Also, in “in vitro”, it took 51.6 µM to reach half-maximal cytotoxicity (CC50 at 3 days).

In the case of `C[C@@H]1c2ccccc2CCN1C(=O)c1cc(C2CC2)c2nn(-c3ccc(N)cc3F)cc2c1` [Compound 19, 4-{7-Cyclopropyl-5-[(1R)-1-methyl-1,2,3,4-tetrahydroisoquinoline-2-carbonyl]-2H-indazol-2-yl}-3-fluoroaniline], the EC50 in the data set on rgRSV224 virus stood at 0.16 µM. Half-maximal cytotoxicity in the data set “in vitro” (CC50 at 3 days) was put at 55.2 µM.
